Data on 14 compounds can be found in PubChem BioAssay (NCI).

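Following 48 hours of exposure in 96-well plates, responses at five concentrations were used to interpolate endpoints linearly. TGI: concentration producing complete growth inhibition.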

What all share (assay): growth of human tumour cells (NCI), 48 h
Assay [1] concerns 786-0 renal.
The test system of assay [2] is A549 NSCLC.
For assay [3], the system named is CAKI-1 renal.
Assay [4] deals with CCRF-CEM leukemia.
Assay [5] concerns COLO 205 colon.
The test system of assay [6] is DU-145 prostate.
The subject of assay [7] is EKVX NSCLC.
Assay [8] deals with HCC-2998 colon.
Assay [9] relates to HCT-15 colon.
Assay [10] has as its system HL-60(TB) leukemia.
Assay [11] deals with MDA-N.
The test system of assay [12] is NCI-H460 lung.
Assay [13] relates to SF-539 CNS.
Assay [14] relates to SK-MEL-5 melanoma.
Assay [15] concerns SK-OV-3 ovarian.
Assay [16] relates to TK-10 renal.
Assay [17] concerns A498 renal.

Regarding `CC(=O)C1C(=O)C(=O)N(c2ccc([N+](=O)[O-])cc2)C1=O` (configuration not stated), the TGI in [1], in assay [2], in [3], in assay [4], in [5] and in [6] was more than 100 µM each time. Further, the TGI in [7], in assay [8], in assay [9], in assay [10], in [11] and in [12] was more than 100 µM throughout. The TGI in assay [13], in [14], in assay [15] and in assay [16] was more than 100 µM each time.

Turning to `CCOC(=O)OC1C(Br)C2CCC1(C)C2(C)C` (configuration not stated), the TGI turned out to be 28.8 µM in assay [1]; 30.1 µM in assay [2]; 17.3 µM in assay [4]; 26.2 µM in assay [5]; 33 µM in assay [6]; 29.4 µM in [7]. In addition, the TGI stood at 25.1 µM in assay [8]; 27.5 µM in [9]; 20.1 µM in assay [10]; 28.5 µM in assay [11]; 16.6 µM in assay [12]; 28 µM in assay [13]. In addition, the figures for the TGI in [14], in assay [15] and in [16] were 27.6 µM, 29.5 µM and 27.8 µM, respectively.

Regarding `O=[N+]([O-])c1cc(N=Nc2c(O)ccc3cc(S(=O)(=O)O)ccc23)c(O)c([N+](=O)[O-])c1`, the TGI in assay [1], in [2], in assay [3], in assay [4], in [5] and in assay [6] was more than 100 µM each time. For the same compound, the TGI in [7], in assay [9], in assay [10], in assay [11], in assay [14] and in assay [15] was more than 100 µM each time. This compound also had a TGI in assay [16] of more than 100 µM.

`COC(=O)c1c(C)c2c(c(C)c1C(=O)OC)-c1c(C)ccc3ccc(C)c-2c13`: the TGI in assay [1], in assay [17], in [2], in assay [3], in assay [4] and in assay [5] was more than 100 µM in each case. The TGI is more than 100 µM in [6]; more than 100 µM in assay [7]; more than 55.6 µM in [9]; more than 50.7 µM in [10]; more than 100 µM in assay [11]; more than 69.4 µM in assay [12]. The TGI in [13] is more than 100 µM; in assay [14], 95.8 µM; in assay [15], more than 100 µM; in assay [16] it was more than 100 µM.

Take `O=C(O)CCCNc1ncc2c(n1)-c1ccccc1OC2`: the TGI in assay [1], in assay [2], in assay [3], in assay [4], in assay [5] and in [6] was more than 100 µM in each case. For the same compound, the TGI in [7], in assay [9], in assay [10], in assay [11], in assay [12] and in [13] was more than 100 µM in each case. Further, the TGI in assay [14], in assay [15] and in [16] was more than 100 µM in each case.

Consider `CS(=O)(=O)OCCCSCCSCCCOS(C)(=O)=O`, for which the TGI in assay [1], in assay [2], in assay [4], in [5], in assay [6] and in [7] was more than 100 µM each time. For the same compound, the TGI in assay [8], in assay [9], in assay [10], in assay [11], in assay [12] and in [13] was more than 100 µM each time. Besides, the TGI in assay [14], in [15] and in assay [16] was more than 100 µM each time.

In the case of `COC(=O)CN1C(=O)C2(C(=O)OC)OC1(c1ccc([N+](=O)[O-])cc1)C1C(=O)N(c3ccccc3)C(=O)C12` (configuration not stated), the TGI in assay [1], in assay [17], in assay [2], in [3], in [4] and in [5] was more than 100 µM each time. The TGI in assay [6], in assay [7], in assay [9], in assay [10], in assay [11] and in assay [13] was more than 100 µM throughout. Also, the TGI in assay [14], in assay [15] and in [16] was more than 100 µM each time.

For the compound `O=[N+]([O-])c1cc(-[n+]2cc([O-])on2)ccc1Cl`, the TGI in [1] was 60.3 µM; in assay [2], more than 100 µM; in assay [3], 5.01 µM; in [4], 62.4 µM; in assay [5], more than 100 µM; in assay [6], 30.5 µM. Besides, the TGI in assay [7] is 37.8 µM; in [8], 34.9 µM; in assay [9], 73.7 µM; in [10] it was more than 100 µM; in assay [11] it was 39.9 µM; in assay [12], more than 100 µM. Besides, the TGI in assay [14] was 21.9 µM; in assay [15] it was more than 100 µM; in [16], 67.2 µM.

As to `COc1ccccc1/C=C1\S/C(=N/Nc2nc(C)c(C(C)=O)s2)NC1=O`, the TGI in assay [1] was more than 100 µM; in assay [17] it was 45.5 µM; in assay [2], more than 100 µM; in assay [3], more than 100 µM; in [4], more than 100 µM; in assay [5], 46.2 µM. The TGI in assay [6] is more than 100 µM; in [8], more than 100 µM; in [10], 63.2 µM; in assay [11], 88.1 µM; in assay [12] it was more than 100 µM; in assay [13], more than 100 µM. Besides, the TGI in [14] is 47.7 µM; in [15], more than 100 µM; in assay [16] it was more than 100 µM.

Regarding `O=c1[nH][nH]c(=O)n1/N=C/c1ccccc1`, the TGI in assay [1], in [17], in assay [2], in [3], in assay [4] and in [5] was more than 100 µM throughout. Besides, the TGI in assay [6], in assay [7], in assay [9], in [10], in [11] and in [12] was more than 100 µM each time. The TGI in [13], in assay [14], in assay [15] and in [16] was more than 100 µM each time.

For `C=CCN1C[C@H](C)N([C@H](c2ccc(C(=O)N(CC)CC)cc2)c2cccc(OC)c2)C[C@H]1C`, the TGI in assay [1] is more than 100 µM; in [17] it was more than 100 µM; in assay [2], more than 100 µM; in assay [3], more than 100 µM; in assay [5], 38.7 µM; in assay [6], more than 100 µM. Further, the TGI in assay [7] was more than 100 µM; in assay [9] it was more than 100 µM; in [10] it was 64.9 µM; in [11], more than 100 µM; in assay [13] it was more than 100 µM; in [14] it was 27.6 µM. In addition, the TGI in assay [15] and in [16] was more than 100 µM in each case.

Consider `CCC/C(Cl)=N/OC(NC(=O)OCC)(C(F)(F)F)C(F)(F)F`, for which the TGI in assay [1] was 31.2 µM; in assay [17], more than 100 µM; in assay [2], more than 100 µM; in assay [3], 35.6 µM; in [4] it was 87.9 µM; in [5] it was 36.9 µM. In addition, the TGI was more than 100 µM in [6]; 45 µM in [7]; 40.6 µM in [9]; 48.2 µM in assay [10]; 35.9 µM in [11]; more than 100 µM in assay [12]. Besides, the values for the TGI in [13], in [14] and in assay [16] were 30.3 µM, 71.4 µM and 33.3 µM, respectively.

Regarding `Cc1cc(S(=O)(=O)Nc2nnc3ccccn23)c(S)cc1Cl`, the TGI in assay [1], in [17], in assay [2], in assay [5], in [6] and in assay [7] was more than 100 µM throughout. Moreover, the TGI in assay [8], in assay [9], in assay [10], in assay [11], in [12] and in [13] was more than 100 µM each time. Besides, the TGI in assay [14] and in [16] was more than 100 µM throughout.

On to `CCNC1=C(NC(=O)c2ccccc2)C(=O)c2ccccc2C1=O`, for which the TGI in [1], in assay [2], in assay [4], in assay [5], in [6] and in [8] was more than 100 µM throughout. Moreover, the TGI was more than 100 µM in assay [9]; more than 100 µM in assay [10]; 24.1 µM in assay [11]; more than 100 µM in assay [12]; more than 100 µM in assay [13]; more than 100 µM in assay [15]. The same compound came in with a TGI in assay [16] of more than 100 µM.
